Values after ≈ are worked out from the molar mass of the structure shown.
Experiments:
[1] = system: aminoacyl-tRNA synthetases (aaRS); experiment: aaRS charging and trichloroacetic acid precipitation assay, IC50 (S. aureus); type: biochemical; settings: aaRS of S. aureus; values are range classes
Description: (§1) IC50 determinations for the aminoacyl-tRNA synthetases (aaRS) isolated from pathogen or HeLa cells were carried out using a modification of the aaRS charging and trichloroacetic acid precipitation assay described previously (see examples: D. Kern et. al., Biochemie, 61, 1257-1272 (1979) and J. Gilbart et. al. Antimicrobial Agents and Chemotherapy, 37(1), 32-38 (1993)). The aaRS enzymes were prepared via standard cloning and expression methods and partially purified or partially purified from pathogen and HeLa cell extracts. The activity of each aaRS enzyme was standardized as trichloroacetic acid precipitable counts (cpm) obtained at 10 minutes reaction time at Km concentrations of substrates. For practical purposes, the minimal acceptable value is approximately 2000 cpm per 10 minute reaction.
(§2) Preincubations for IC50 determinations were initiated by incubating partially purified aaRS extracts in 50 mM HEPES (pH 7.5), 0.1 mM EDTA, 0.05 mg/ml bovine serum albumin, 10 mM dithiothreitol and 2.5% dimethyl sulfoxide with and without test compound (e.g. compound of the invention (preferably a compound of Formula I)) in a final volume of 20 microliters in a microtiter plate for 20 minutes at 25 C. Test compounds were typically present as serial dilutions in concentration ranges of 0.35 nM to 35 μM. Test compound solutions were prepared by dissolving test compound in 100% dimethyl sulfoxide and diluting to the final concentration with 50 mM HEPES, pH 7.5. IC50 determinations were typically performed in duplicate with each experiment containing 4-8 concentrations of inhibitor along with two no inhibitor controls.
(§3) IC50 incubations were initiated by supplementing the preincubation mixture to a final assay concentration of 10 mM MgCl2, 30 mM KCl, 10 mM KF, 50 mM HEPES (pH 7.5), 20 μM-500 mM ATP, 2-20 μM [^3H] amino acid, and 90-180 μM crude tRNA in a final volume of 35 microliters. The reaction was incubated at 25° C. for 5-20 minutes. At specified time points a 15 microliter aliquot was removed and added to a well of a Millipore filtration plate (Multiscreen-FB, MAFB NOB 10) containing 100 microliters of cold 5% (wt/vol) trichloroacetic acid. Trichloroacetic acid precipitable material was collected by filtration on Millipore Multiscreen filtration station, washed twice with cold 5% trichloroacetic acid, twice with water, and dried. Plates were typically allowed to air dry for several hours or they were baked at 50° C. in a vacuum oven for 30 minutes. The radioactivity on the dried plates was quantitated by the addition of Packard Microscint-20 to the wells and counting with a Packard TopCount scintillation counter.
(§4) Inhibitor activity was typically reported as a percentage of the control aaRS activity. The IC50 value was determined by plotting percent activity versus compound concentration in the assay and identifying the concentration at which 50% of the activity was remaining.

E. faecium = experiment: Whole cell antimicrobial screen, MIC (E. faecium); type: cell-based; settings: 2-fold dilutions, overnight incubation; for MIC: Enterococcus faecium, read-out: MIC (μg/mL) Efm
Description: (§5) Compounds were tested for antimicrobial activity against a panel of organisms according to standard procedures described by the National Committee for Clinical Laboratory Standards (NCCLS document M7-A3, Vol. 13, No. 25, 1993/NCCLS document M27-P, Vol. 12, No. 25, 1992). Compounds were dissolved in 100% DMSO and were diluted to the final reaction concentration (0.1 μg/ml-500 μg/ml) in microbial growth media. In all cases the final concentration of DMSO incubated with cells is less than or equal to 1%. For minimum inhibitory concentration (MIC) calculations, 2-fold dilutions of compounds were added to wells of a microtiter plate containing 1×10^5 bacteria or fungal cells in a final volume of 200 lambda of an appropriate media (Mueller-Hinton Broth; Haemophilus Test Media; Mueller-Hinton Broth+5% Sheep Blood; or […]). Plates were incubated overnight at an appropriate temperature (30° C.-37° C.) and optical densities (measure of cell growth) were measured using a commercial plate reader. The MIC value is defined as the lowest compound concentration inhibiting growth of the test organism.

[2] = system: aminoacyl-tRNA synthetases (aaRS); experiment: aaRS charging and trichloroacetic acid precipitation assay, IC50 (E. faecalis); type: biochemical; settings: aaRS of E. faecalis; values are range classes
Description: as §1, §2, §3, §4

E. faecalis = experiment: Whole cell antimicrobial screen, MIC (Efs); type: cell-based; settings: 2-fold dilutions, overnight incubation; for MIC: Enterococcus faecalis, read-out: MIC (μg/mL) Efs
Description: as §5

S. aureus = experiment: Whole cell antimicrobial screen, MIC (S. aureus); type: cell-based; settings: 2-fold dilutions, overnight incubation; for MIC: Staphylococcus aureus, read-out: MIC (μg/mL) Sa
Description: as §5

## O=C(NCc1nc2ccccc2[nH]1)[C@@H]1CC(O)CN1Cc1ccc(Cl)cc1Cl (stereo partly shown) [127,006]
[1]
  IC50: < 500 nM
E. faecium
  MIC: < 100 µg/mL
[2]
  IC50: 1000 to 10000 nM
E. faecalis
  MIC: < 100 µg/mL
S. aureus
  MIC: < 100 µg/mL

## O=C(NCc1nc2ccccc2[nH]1)C1CC(c2nn[nH]n2)CN1Cc1ccc(Cl)cc1Cl (mixture of isomers) [130,706]
[1]
  IC50: < 500 nM
E. faecium
  MIC (μg/mL) Efm: >100 µg/mL
[2]
  IC50: < 500 nM
E. faecalis
  MIC (μg/mL) Efs: >100 µg/mL
S. aureus
  MIC (μg/mL) Sa: >100 µg/mL

## O=C(NCc1nc2ccccc2[nH]1)[C@@H]1CCCN1Cc1ccc(Cl)cc1Cl [126,881]
[1]
  IC50: < 500 nM
[2]
  IC50: 1000 to 10000 nM
E. faecalis
  MIC: < 100 µg/mL
S. aureus
  MIC: 100 µg/mL (≈ 248 µM)

## O=C(O)CON=C1CC(C(=O)NCc2nc3ccccc3[nH]2)N(Cc2ccc(Cl)cc2Cl)C1 (stereo not shown) [130,709]
[1]
  IC50: 1000 to 10000 nM
E. faecium
  MIC: > 100 µg/mL
[2]
  IC50: 1000 to 10000 nM
E. faecalis
  MIC: > 100 µg/mL
S. aureus
  MIC: > 100 µg/mL

## O=C(NCc1nc2ccccc2[nH]1)C1CC(=NO)CN1Cc1ccc(Cl)cc1Cl (stereo not shown) [130,707]
[1]
  IC50: 1000 to 10000 nM
E. faecium
  MIC: > 100 µg/mL
[2]
  IC50: 1000 to 10000 nM
E. faecalis
  MIC: > 100 µg/mL
S. aureus
  MIC: > 100 µg/mL

## O=C(NCc1nc2ccccc2[nH]1)[C@@H]1C[C@@H](O)CN1Cc1ccc(Cl)cc1Cl [130,901]
[1]
  IC50: < 500 nM
E. faecium
  MIC (μg/mL) Efm: <100 µg/mL
[2]
  IC50: 501 to 1000 nM
E. faecalis
  MIC (μg/mL) Efs: <100 µg/mL
S. aureus
  MIC (μg/mL) Sa: <100 µg/mL

## N#CC1CC(C(=O)NCc2nc3ccccc3[nH]2)N(Cc2ccc(Cl)cc2Cl)C1 (stereo not shown) [127,566]
[1]
  IC50: 1000 to 10000 nM
E. faecium
  MIC: > 100 µg/mL
[2]
  IC50: 1000 to 10000 nM
E. faecalis
  MIC: > 100 µg/mL
S. aureus
  MIC: > 100 µg/mL

## O=C(NCc1nc2ccccc2[nH]1)[C@@H]1C[C@H](O)CN1Cc1ccc(Cl)cc1Cl [130,900]
[1]
  IC50: < 500 nM
E. faecium
  MIC (μg/mL) Efm: 100 µg/mL (≈ 238 µM)
[2]
  IC50: < 500 nM
E. faecalis
  MIC (μg/mL) Efs: <100 µg/mL
S. aureus
  MIC (μg/mL) Sa: 100 µg/mL (≈ 238 µM)

## CON=C1CC(C(=O)NCc2nc3ccccc3[nH]2)N(Cc2ccc(Cl)cc2Cl)C1 (stereo not shown) [130,708]
[1]
  IC50: 1000 to 10000 nM
E. faecium
  MIC: > 100 µg/mL
[2]
  IC50: 1000 to 10000 nM
E. faecalis
  MIC: > 100 µg/mL
S. aureus
  MIC: > 100 µg/mL

## O=C(NCc1nc2ccccc2[nH]1)[C@H]1CCCN1Cc1ccc(Cl)cc1Cl [130,724]
[1]
  IC50: 1000 to 10000 nM
E. faecium
  MIC (μg/mL) Efm: >100 µg/mL
[2]
  IC50: 1000 to 10000 nM
E. faecalis
  MIC (μg/mL) Efs: >100 µg/mL
S. aureus
  MIC (μg/mL) Sa: <100 µg/mL

## O=C(NCc1nc2ccccc2[nH]1)[C@@H]1CCCCN1Cc1ccc(Cl)cc1Cl [130,693]
[1]
  IC50: 1000 to 10000 nM
E. faecium
  MIC (μg/mL) Efm: 100 µg/mL (≈ 240 µM)
[2]
  IC50: 1000 to 10000 nM
E. faecalis
  MIC (μg/mL) Efs: >100 µg/mL
S. aureus
  MIC (μg/mL) Sa: <100 µg/mL

## O=C(O)CC1CC(C(=O)NCc2nc3ccccc3[nH]2)N(Cc2ccc(Cl)cc2Cl)C1 (stereo not shown) [130,973]
[1]
  IC50: < 500 nM
E. faecium
  MIC: > 100 µg/mL
[2]
  IC50: < 500 nM
E. faecalis
  MIC: > 100 µg/mL
S. aureus
  MIC: > 100 µg/mL

## Clc1ccc(CN2CCC[C@H]2COCc2nc3ccccc3[nH]2)c(Cl)c1 [130,928]
[1]
  IC50: 1000 to 10000 nM
E. faecium
  MIC (μg/mL) Efm: 100 µg/mL (≈ 256 µM)
[2]
  IC50: 1000 to 10000 nM
E. faecalis
  MIC (μg/mL) Efs: >100 µg/mL
S. aureus
  MIC (μg/mL) Sa: 100 µg/mL (≈ 256 µM)

## O=C(NCc1nc2ccccc2[nH]1)C1CC(OCc2ccccc2)CN1Cc1ccc(Cl)cc1Cl (stereo not shown) [127,889]
[1]
  IC50: 1000 to 10000 nM
E. faecium
  MIC: > 100 µg/mL
[2]
  IC50: 1000 to 10000 nM
E. faecalis
  MIC: > 100 µg/mL
S. aureus
  MIC: > 100 µg/mL

## O=C1C[C@@H](C(=O)NCc2nc3ccccc3[nH]2)N(Cc2ccc(Cl)cc2Cl)C1 [130,692]
[1]
  IC50: 1000 to 10000 nM
E. faecium
  MIC: > 100 µg/mL
[2]
  IC50: 1000 to 10000 nM
E. faecalis
  MIC: > 100 µg/mL
S. aureus
  MIC: > 100 µg/mL

## O=C(NCc1nc2ccccc2[nH]1)C1CC(O)CN1Cc1ccc(Cl)cc1Cl (stereo not shown) [130,725]
[1]
  IC50: 10000 to 60000 nM
E. faecium
  MIC (μg/mL) Efm: >100 µg/mL
[2]
  IC50: 10000 to 60000 nM
E. faecalis
  MIC (μg/mL) Efs: >100 µg/mL
S. aureus
  MIC (μg/mL) Sa: >100 µg/mL

— US6579894B2, “Prolines as antimicrobial agents” (Merck & Co., Inc., priority 1999, dated 2003)
